# Results reported in publication PMC10712727, “Safety, Tolerability, and Pharmacokinetics of Senaparib, a Novel PARP1/2 Inhibitor, in Chinese Patients With Advanced Solid Tumors: A Phase I Trial” (The Oncologist, 2023).
# Test system: patients with advanced solid tumors
# Experiment: Safety: treatment-emergent and senaparib-related adverse events graded per NCI CTCAE v4.03
# Assay type: in vivo
# Conditions: for ALT increased, All / ALT increased, Gr≥3 / AST increased, All / AST increased, Gr≥3 / Abdominal distension, All / Abdominal distension, Gr≥3 / Anemia (incl. hemoglobin decreased), All / Anemia (incl. hemoglobin decreased), Gr≥3 / Appetite decreased, All / Appetite decreased, Gr≥3 / Asthenia, All / Asthenia, Gr≥3 / Blood bilirubin increased, All / Blood bilirubin increased, Gr≥3 / Blood creatinine increased, All / Blood creatinine increased, Gr≥3 / Hypokalemia, All / Hypokalemia, Gr≥3 / Hyponatremia, All / Hyponatremia, Gr≥3 / Nausea, All / Nausea, Gr≥3 / Neutrophil count decreased, All / Neutrophil count decreased, Gr≥3 / Pain in extremity, All / Pain in extremity, Gr≥3 / Platelet count decreased, All / Platelet count decreased, Gr≥3 / Protein in urine, All / Protein in urine, Gr≥3 / Vomiting, All / Vomiting, Gr≥3 / WBC decreased, All / WBC decreased, Gr≥3: TEAE
# Protocol: This phase I, open-label, multicenter, dose-escalation, and dose-expansion study was conducted at three national clinical institutions in China. […] At baseline, all patients enrolled in the dose-escalation phase had to have at least one evaluable lesion, and those in the dose-expansion period had to have at least one measurable lesion, according to Response Evaluation Criteria in Solid Tumors version 1.1 (RECIST v1.1).[16] Entry to the dose-expansion cohort required the presence of a BRCA mutation, with the exception of patients with ovarian carcinoma, fallopian tube carcinoma, and primary peritoneal carcinoma. Full study eligibility criteria are provided in Supplementary Table S1.
# Dose escalation was conducted using a modified Fibonacci 3 + 3 method (Supplementary Fig. S1).[17] Patients were administered oral senaparib from a planned starting dose of 2 mg once daily (QD), with preliminary dose escalation to 120 mg via nine dose groups, in order of their entry into the study. At a given dose level, each patient received a single dose of senaparib followed by a 7-day washout period. They then entered a continuous dosing period to confirm the safety and PK profile, in which they received senaparib QD from day 1 to day 21 of each 3-week cycle. Progression to the next higher dose required approval from the Data Safety Monitoring Committee (DSMC) upon review of the safety and PK data of the previous dose. A 50-mg twice-daily (BID) dosing group was added (planned enrollment, n = 6 patients) based on a DSMC review of the safety, PK, and efficacy analysis of the completed QD dose groups in the phase I clinical trial of senaparib dose escalation in Australia (NCT03507543), which commenced prior to the start of this trial.
# The dose-expansion period included 3 populations: dose groups in which at least one patient achieved complete response (CR) or partial response (PR) per RECIST v1.1[16] and 1 dose group higher (evaluated for safety), as well as the dose group at the maximum tolerated dose (MTD)/recommended phase II dose (RP2D). Each of these groups included those patients in the respective dose-escalation group plus a planned additional 10 patients (approximately 20 patients in the MTD/RP2D group) with BRCA^mut+ solid tumors (ovarian, breast, or prostate cancer were preferred, and ovarian cancer could be BRCA wild type). Patients received senaparib monotherapy orally QD or BID (50-mg dose only) over each 3-week cycle until disease progression or unacceptable toxicity.
# DLTs were predefined toxicities (Supplementary Table S2) recorded over the 7 days following the single-dose administration of senaparib and during the first treatment cycle (day 1-day 21) for each dose group in the dose-escalation period only. The MTD was defined as the maximum dose at which ≤1/6 patients experienced a DLT. Senaparib PK parameters were derived from blood samples collected from patients after the single administration, and at regular intervals during the first cycle of the dose-escalation and dose-expansion periods. Plasma concentrations of senaparib were determined using high-performance liquid chromatography-tandem mass spectrometry. Tumor response was assessed every 6 weeks per RECIST v1.1,[16] recording objective response rate (ORR), disease control rate (DCR), duration of response (DOR), and progression-free survival (PFS) by dose level for all patients and for those harboring BRCA^mut+ tumors.
compound,measurement,setting,value
O=C(c1cc(Cn2c(=O)[nH]c(=O)c3c(F)cccc32)ccc1F)N1CCN(c2ncccn2)CC1 [Senaparib],"TEAEs leading to death, patients",120 mg QD n = 4,0 n (%)
same,"TEAEs leading to dose discontinuation, events",120 mg QD n = 4,2 n ev
same,"TEAEs leading to dose discontinuation, patients",120 mg QD n = 4,1 (25.0) n (%)
same,"TEAEs leading to dose interruption, events",120 mg QD n = 4,3 n ev
same,"TEAEs leading to dose interruption, patients",120 mg QD n = 4,2 (50.0) n (%)
same,"TEAEs leading to dose reduction, events",120 mg QD n = 4,0 n ev
same,"TEAEs leading to dose reduction, patients",120 mg QD n = 4,0 n (%)
same,"TRAEs Grade ≥3, events",120 mg QD n = 4,6 n ev
same,"TRAEs Grade ≥3, patients",120 mg QD n = 4,3 (75.0) n (%)
same,"TRAEs, events",120 mg QD n = 4,47 n ev
same,"TRAEs, patients",120 mg QD n = 4,4 (100) n (%)
same,"Vomiting TRAE, All",120 mg QD n = 4,1 (25.0) n (%)
same,"Vomiting TRAE, Gr≥3",120 mg QD n = 4,0 n (%)
same,"WBC decreased TRAE, All",120 mg QD n = 4,4 (100) n (%)
same,"WBC decreased TRAE, Gr≥3",120 mg QD n = 4,0 n (%)
same,Grade ≥3 TRAEs,"2-, 10-, 40-, and 60-mg dose groups",no grade ≥3 TRAEs
same,"Grade ≥3 TRAEs, incidence (highest)",120-mg dose group,75.0%
same,"ALT increased, All",2 mg QD n = 1,0 n (%)
same,"ALT increased, Gr≥3",2 mg QD n = 1,0 n (%)
same,"AST increased, All",2 mg QD n = 1,0 n (%)
same,"AST increased, Gr≥3",2 mg QD n = 1,0 n (%)
same,"Abdominal distension, All",2 mg QD n = 1,0 n (%)
same,"Abdominal distension, Gr≥3",2 mg QD n = 1,0 n (%)
same,"Anemia (incl. hemoglobin decreased), All",2 mg QD n = 1,0 n (%)
same,"Anemia (incl. hemoglobin decreased), Gr≥3",2 mg QD n = 1,0 n (%)
same,"Appetite decreased, All",2 mg QD n = 1,1 (100) n (%)
same,"Appetite decreased, Gr≥3",2 mg QD n = 1,0 n (%)
same,"Asthenia, All",2 mg QD n = 1,1 (100) n (%)
same,"Asthenia, Gr≥3",2 mg QD n = 1,0 n (%)
same,"Blood bilirubin increased, All",2 mg QD n = 1,0 n (%)
same,"Blood bilirubin increased, Gr≥3",2 mg QD n = 1,0 n (%)
same,"Blood creatinine increased, All",2 mg QD n = 1,0 n (%)
same,"Blood creatinine increased, Gr≥3",2 mg QD n = 1,0 n (%)
same,"Hypokalemia, All",2 mg QD n = 1,1 (100) n (%)
same,"Hypokalemia, Gr≥3",2 mg QD n = 1,0 n (%)
same,"Hyponatremia, All",2 mg QD n = 1,0 n (%)
same,"Hyponatremia, Gr≥3",2 mg QD n = 1,0 n (%)
same,"Nausea, All",2 mg QD n = 1,0 n (%)
same,"Nausea, Gr≥3",2 mg QD n = 1,0 n (%)
same,"Neutrophil count decreased, All",2 mg QD n = 1,0 n (%)
same,"Neutrophil count decreased, Gr≥3",2 mg QD n = 1,0 n (%)
same,"Pain in extremity, All",2 mg QD n = 1,0 n (%)
same,"Pain in extremity, Gr≥3",2 mg QD n = 1,0 n (%)
same,"Platelet count decreased, All",2 mg QD n = 1,0 n (%)
same,"Platelet count decreased, Gr≥3",2 mg QD n = 1,0 n (%)
same,"Protein in urine, All",2 mg QD n = 1,0 n (%)
same,"Protein in urine, Gr≥3",2 mg QD n = 1,0 n (%)
same,"Vomiting, All",2 mg QD n = 1,0 n (%)
same,"Vomiting, Gr≥3",2 mg QD n = 1,0 n (%)
same,"WBC decreased, All",2 mg QD n = 1,0 n (%)
same,"WBC decreased, Gr≥3",2 mg QD n = 1,0 n (%)
same,"ALT increased, All",5 mg QD n = 3,0 n (%)
same,"ALT increased, Gr≥3",5 mg QD n = 3,0 n (%)
same,"AST increased, All",5 mg QD n = 3,0 n (%)
same,"AST increased, Gr≥3",5 mg QD n = 3,0 n (%)
same,"Abdominal distension, All",5 mg QD n = 3,1 (33.3) n (%)
same,"Abdominal distension, Gr≥3",5 mg QD n = 3,0 n (%)
same,"Anemia (incl. hemoglobin decreased), All",5 mg QD n = 3,2 (66.7) n (%)
same,"Anemia (incl. hemoglobin decreased), Gr≥3",5 mg QD n = 3,1 (33.3) n (%)
same,"Appetite decreased, All",5 mg QD n = 3,1 (33.3) n (%)
same,"Appetite decreased, Gr≥3",5 mg QD n = 3,0 n (%)
same,"Asthenia, All",5 mg QD n = 3,2 (66.7) n (%)
same,"Asthenia, Gr≥3",5 mg QD n = 3,0 n (%)
same,"Blood bilirubin increased, All",5 mg QD n = 3,1 (33.3) n (%)
same,"Blood bilirubin increased, Gr≥3",5 mg QD n = 3,0 n (%)
same,"Blood creatinine increased, All",5 mg QD n = 3,0 n (%)
same,"Blood creatinine increased, Gr≥3",5 mg QD n = 3,0 n (%)
same,"Hypokalemia, All",5 mg QD n = 3,0 n (%)
same,"Hypokalemia, Gr≥3",5 mg QD n = 3,0 n (%)
same,"Hyponatremia, All",5 mg QD n = 3,0 n (%)
same,"Hyponatremia, Gr≥3",5 mg QD n = 3,0 n (%)
same,"Nausea, All",5 mg QD n = 3,1 (33.3) n (%)
same,"Nausea, Gr≥3",5 mg QD n = 3,0 n (%)
same,"Neutrophil count decreased, All",5 mg QD n = 3,1 (33.3) n (%)
same,"Neutrophil count decreased, Gr≥3",5 mg QD n = 3,0 n (%)
same,"Pain in extremity, All",5 mg QD n = 3,1 (33.3) n (%)
same,"Pain in extremity, Gr≥3",5 mg QD n = 3,1 (33.3) n (%)
same,"Platelet count decreased, All",5 mg QD n = 3,2 (66.7) n (%)
same,"Platelet count decreased, Gr≥3",5 mg QD n = 3,0 n (%)
same,"Protein in urine, All",5 mg QD n = 3,0 n (%)
same,"Protein in urine, Gr≥3",5 mg QD n = 3,0 n (%)
same,"Vomiting, All",5 mg QD n = 3,0 n (%)
same,"Vomiting, Gr≥3",5 mg QD n = 3,0 n (%)
same,"WBC decreased, All",5 mg QD n = 3,1 (33.3) n (%)
same,"WBC decreased, Gr≥3",5 mg QD n = 3,0 n (%)
same,"ALT increased, All",10 mg QD n = 3,1 (33.3) n (%)
same,"ALT increased, Gr≥3",10 mg QD n = 3,0 n (%)
same,"AST increased, All",10 mg QD n = 3,1 (33.3) n (%)
same,"AST increased, Gr≥3",10 mg QD n = 3,0 n (%)
same,"Abdominal distension, All",10 mg QD n = 3,0 n (%)
same,"Abdominal distension, Gr≥3",10 mg QD n = 3,0 n (%)
same,"Anemia (incl. hemoglobin decreased), All",10 mg QD n = 3,1 (33.3) n (%)
same,"Anemia (incl. hemoglobin decreased), Gr≥3",10 mg QD n = 3,0 n (%)
same,"Appetite decreased, All",10 mg QD n = 3,1 (33.3) n (%)
same,"Appetite decreased, Gr≥3",10 mg QD n = 3,0 n (%)
same,"Asthenia, All",10 mg QD n = 3,0 n (%)
same,"Asthenia, Gr≥3",10 mg QD n = 3,0 n (%)
same,"Blood bilirubin increased, All",10 mg QD n = 3,0 n (%)
same,"Blood bilirubin increased, Gr≥3",10 mg QD n = 3,0 n (%)
same,"Blood creatinine increased, All",10 mg QD n = 3,0 n (%)
same,"Blood creatinine increased, Gr≥3",10 mg QD n = 3,0 n (%)
same,"Hypokalemia, All",10 mg QD n = 3,0 n (%)
same,"Hypokalemia, Gr≥3",10 mg QD n = 3,0 n (%)
same,"Hyponatremia, All",10 mg QD n = 3,0 n (%)
same,"Hyponatremia, Gr≥3",10 mg QD n = 3,0 n (%)
same,"Nausea, All",10 mg QD n = 3,0 n (%)
same,"Nausea, Gr≥3",10 mg QD n = 3,0 n (%)
same,"Neutrophil count decreased, All",10 mg QD n = 3,0 n (%)
same,"Neutrophil count decreased, Gr≥3",10 mg QD n = 3,0 n (%)
same,"Pain in extremity, All",10 mg QD n = 3,0 n (%)
same,"Pain in extremity, Gr≥3",10 mg QD n = 3,0 n (%)
same,"Platelet count decreased, All",10 mg QD n = 3,0 n (%)
same,"Platelet count decreased, Gr≥3",10 mg QD n = 3,0 n (%)
same,"Protein in urine, All",10 mg QD n = 3,1 (33.3) n (%)
same,"Protein in urine, Gr≥3",10 mg QD n = 3,0 n (%)
same,"Vomiting, All",10 mg QD n = 3,0 n (%)
